*1 amine or outer side, *2 acyl side, *3 side chain or, on linkers, in order; H or OH if unused. Where a SMILES comes first, the peptide text is derived from it. Bridges are numbered along the chain shown (N, C = ends). [ ]: non-standard residue; d: D form. X2 = C[C@H]1CC[C@@](CC(=O)[*:1])(S[*:2])CC1

The target in test [1] is vasopressin receptors (V2 -receptors) (Sus scrofa, UniProt P32307). The experiment in a line: biochemical. The method, then: (§1) V2 -antagonistic activity toward the natural anti-diuretic hormone (anti-ADH activity) is determined, in vitro, in the medullary tissue of hog or human kidneys and, in vivo, in the hydropenic rat. The in vitro assay procedures for vasopressin stimulated adenylate cyclase activation or vasopressin binding activity are described by F. Stassen et al., J. Pharmacology and Experimental Therapeutics 223, 50-54 (1982). V1 -antagonistic activity is determined by procedures using the rat thoracic aorta tissue and plasma membranes of rat liver. These procedures are described in the noted Stassen publication and in a publication at the 1st International Conference on Diuretics, Miami, Fla., March (1984). Oxytocin antagonism is determined as described by W. Sawyer et al., Endocrinology 106, 81 (1979).
(§2) The hydropenic rat screen and the hog kidney assay are known to the art, Huffman et al., U.S. Pat. No. 4,469,679.

In test [2] the target is vasopressin stimulated adenylate cyclase (V2 -receptors) (Sus scrofa, UniProt P32307). Briefly: biochemical. The procedure: as §1, §2
Sequence of vasopressin stimulated adenylate cyclase (V2 -receptors) (P32307 whole entry): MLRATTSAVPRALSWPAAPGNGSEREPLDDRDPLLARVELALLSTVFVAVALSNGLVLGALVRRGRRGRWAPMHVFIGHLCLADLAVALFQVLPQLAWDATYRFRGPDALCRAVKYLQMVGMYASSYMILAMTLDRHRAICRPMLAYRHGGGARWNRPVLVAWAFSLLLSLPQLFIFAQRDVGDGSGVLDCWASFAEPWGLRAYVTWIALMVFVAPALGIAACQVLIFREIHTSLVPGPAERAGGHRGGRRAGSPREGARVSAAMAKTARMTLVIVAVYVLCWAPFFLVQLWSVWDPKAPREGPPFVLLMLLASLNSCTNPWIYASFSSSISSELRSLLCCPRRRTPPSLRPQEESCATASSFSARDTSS

Sequence of vasopressin receptors (V2 -receptors) (P32307 whole entry): as above

Turning to `CCOc1ccc(C[C@H]2NC(=O)C[C@]3(CC[C@H](C)CC3)SSC[C@@H](C(=O)N3CCC[C@H]3C(=O)N[C@@H](CCCNC(=N)N)C(=O)NCC(N)=O)NC(=O)[C@H](CC(N)=O)NC(=O)[C@H](C(C)C)NC(=O)[C@H](Cc3ccccc3)NC2=O)cc1` [DTyr(Et) GlyNH2, [1-(4'-methyl-β-mercapto-β,β-cyclopentamethylene propionic acid)-2-(O-ethyl)-D-tyrosine-4-valine-8-arginine]-vasopressin] ([dY](Et)FVNCPRG-NH2; linker N-5 via X2), the Ki (usually the dissociation constant of the complex between target and ligand, obtained from inhibition or displacement) was determined as 0.013 µM in test [1] and 0.0042 µM in test [2].
As for `CCOc1ccc(C[C@H]2NC(=O)C[C@]3(CC[C@H](C)CC3)SSC[C@@H](C(=O)N3CCC[C@H]3C(=O)N[C@@H](CCCNC(=N)N)C(N)=O)NC(=O)[C@H](CC(N)=O)NC(=O)[C@H](C(C)C)NC(=O)[C@H](Cc3ccccc3)NC2=O)cc1` [DTyr(Et) NH2, [1-(4'-methyl-β-mercapto-β,β-cyclopentamethylenepropionic acid)-2-(O-ethyl)-D-tyrosine-4-valine-8-arginine-9-desglycine]-vasopressin] ([dY](Et)FVNCPR-NH2; linker N-5 via X2), affinity in test [1] was put at a Ki of 0.019 µM.
For the compound `COc1ccc(C[C@@H]2NC(=O)C[C@]3(CC[C@H](C)CC3)SSC[C@@H](C(=O)N3CCC[C@H]3C(=O)N[C@@H](CCCNC(=N)N)C(=O)NCC(N)=O)NC(=O)[C@H](CC(N)=O)NC(=O)[C@H](C(C)C)NC(=O)[C@H](Cc3ccccc3)NC2=O)cc1` [LTyr(Me) GlyNH2] (Y(Me)FVNCPRG-NH2; linker N-5 via X2), the inhibition constant Ki in test [1] was found to be 0.13 µM; in test [2], 0.044 µM.

The values are drawn from patent US4826813A, “4'-Methyl-β-mercapto-β,β-cyclopentamethylenepropionic acid vasopressin antagonists” (SmithKline Beckman Corporation, priority 1987, dated 1989).
